Source: PMC6886665 (2019)

Tested on: truncated vancomycin aptamer (four base pairs removed from the stem), E-AB sensor (DNA, aptamer) CGAGGGTACCGCAATAGTACTTATTGTTCGCCTATTGTGGGTCGG
Assay: electrochemical aptamer-based sensor, square-wave voltammetry
Conditions: undiluted flowing whole blood; surface-attached aptamer; apparent

CN[C@H](CC(C)C)C(=O)N[C@H]1C(=O)N[C@@H](CC(N)=O)C(=O)N[C@H]2C(=O)N[C@H]3C(=O)N[C@H](C(=O)N[C@H](C(=O)O)c4cc(O)cc(O)c4-c4cc3ccc4O)[C@H](O)c3ccc(c(Cl)c3)Oc3cc2cc(c3O[C@@H]2O[C@H](CO)[C@@H](O)[C@H](O)[C@H]2O[C@H]2C[C@](C)(N)[C@H](O)[C@H](C)O2)Oc2ccc(cc2Cl)[C@H]1O
KD: 45 µM
